Measurements: publication PMC6405874, “Development of a novel short 12-meric papiliocin-derived peptide that is effective against Gram-negative sepsis” (Scientific Reports, 2019)
Values after ≈ are worked out from the molar mass of the structure shown. No end group written: not given here.

Columns and labels:
[1] = test system: MDRST 8007 (MDR S. typhimurium CCARM 8007); details: 1% peptone, 2 × 10^6 CFU/mL, 16 h, 37 °C
Protocol: (§1) The antimicrobial activities of Pap12 peptides were tested against four standard Gram-negative bacteria (E. coli, Pseudomonas aeruginosa, Acinetobacter baumannii, and Salmonella typhimurium), three standard Gram-positive bacteria (Staphylococcus aureus, Bacillus subtilis, and Staphylococcus epidermidis), and five MDR bacteria (MDREC CCARM 1229, MDRPA CCARM 2002, MDRAB CCARM 12035, MDRST CCARM 8007, and MRSA CCARM 3126) using the microbroth dilution method. The relative antibacterial activities were compared based on geometric means of MICs (GM).
(§2) Escherichia coli (KCTC 1682), Pseudomonas aeruginosa (KCTC 2004), Acinetobacter baumannii (KCTC 2508), Salmonella typhimurium (KCTC 1926), Bacillus subtilis (KCTC 3068), Staphylococcus aureus (KCTC 1621), and Staphylococcus epidermidis (KCTC 1917) were purchased from the Korean Collection for Type Cultures, Korea Research Institute of Bioscience & Biotechnology (Taejon, Korea). Clinical isolates of MDR E. coli (MDREC; CCARM 1229), P. aeruginosa (MDRPA; CCARM 2002), A. baumannii (MDRAB; CCARM 12035), S. typhimurium (MDRST; CCARM 8007), and S. aureus (MDRSA; CCARM 3126) were supplied by the Culture Collection of Antibiotic-Resistant Microbe (CCARM) at Seoul Women’s University in Korea. The E. coli K1 strain RS218 (O18:K1:H7) was kindly provided by Dr. Jang-Won Yoon of Kangwon National University (Gangwon-do, Korea).
(§3) Peptides were treated with 2 × 10^6 CFU/mL bacterial suspensions in 1% peptone media for 16 h at 37 °C.

[2] = test system: S. epidermidis (KCTC 1917); details: 1% peptone, 2 × 10^6 CFU/mL, 16 h, 37 °C
Protocol: as §1, §2, §3

[3] = test system: MRSA 3126 (CCARM 3126); details: 1% peptone, 2 × 10^6 CFU/mL, 16 h, 37 °C
Protocol: as §1, §2, §3

[4] = test system: MDRAB 12035 (MDR A. baumannii CCARM 12035); details: 1% peptone, 2 × 10^6 CFU/mL, 16 h, 37 °C
Protocol: as §1, §2, §3

[5] = test system: MDREC 1229 (MDR E. coli CCARM 1229); details: 1% peptone, 2 × 10^6 CFU/mL, 16 h, 37 °C
Protocol: as §1, §2, §3

[6] = test system: A. baumannii (KCTC 2508); details: 1% peptone, 2 × 10^6 CFU/mL, 16 h, 37 °C
Protocol: as §1, §2, §3

[7] = test system: MDRPA 2002 (MDR P. aeruginosa CCARM 2002); details: 1% peptone, 2 × 10^6 CFU/mL, 16 h, 37 °C
Protocol: as §1, §2, §3

[8] = test system: Gram-negative bacteria; details: eight Gram-negative strains of Table 2
Protocol: as §1
(§4) The therapeutic index (TI) was calculated (Table 2) using HC10, the peptide concentration required to induce 10% hemolysis.
as §3

[9] = test system: Gram-positive bacteria; details: four Gram-positive strains of Table 2
Protocol: as §1, §4, §3

[10] = test system: human red blood cells (hRBCs); assay: Hemolysis of human red blood cells
Protocol: as §4
The toxicity of peptides to human red blood cells (hRBCs) was determined by measuring the peptide-induced release of haem, and percent hemolysis was calculated as described previously. The peptide-induced cytotoxicity of mouse RAW 264.7 macrophages, human keratinocyte HaCaT cells, and HEK-293 cells were determined by 3-(4,5-dimethylthiazol-2-yl)-2,5-diphenyltetrazolium bromide (MTT) assays as previously described.

[11] = test system: mouse macrophage RAW 264.7 cells; assay: MTT cytotoxicity; type: cell-based; details: MTT, RAW 264.7, HaCaT and HEK-293 cells (Fig. 2B-D)
From the text: The toxicities of peptides against mammalian cells were checked by measuring the survival rate of mouse macrophage RAW 264.7 cells, human keratinocyte HaCaT cells, and HEK-293 human embryonic kidney epithelial (HEK-293) cells after treatment with different concentrations of peptides (Fig. 2B–D). […] Since melittin has higher hydrophobicity and a […] amphiphatic moment (µH) than those of Pap12 peptides, as listed in Table 1, its toxicity is much higher than those of Pap12 peptides.

[12] = test system: S. typhimurium (KCTC 1926); details: 1% peptone, 2 × 10^6 CFU/mL, 16 h, 37 °C
Protocol: as §1, §2, §3

[13] = test system: B. subtilis (KCTC 3068); details: 1% peptone, 2 × 10^6 CFU/mL, 16 h, 37 °C
Protocol: as §1, §2, §3

[14] = test system: P. aeruginosa (KCTC 2004); details: 1% peptone, 2 × 10^6 CFU/mL, 16 h, 37 °C
Protocol: as §1, §2, §3

[15] = test system: S. aureus (KCTC 1621); details: 1% peptone, 2 × 10^6 CFU/mL, 16 h, 37 °C
Protocol: as §1, §2, §3

[16] = test system: E. coli (KCTC 1682); details: 1% peptone, 2 × 10^6 CFU/mL, 16 h, 37 °C
Protocol: as §1, §2, §3

Molecule | Minimal inhibitory concentration (MIC), MDRST 8007 [1] | Minimal inhibitory concentration (MIC), S. epidermidis [2] | Minimal inhibitory concentration (MIC), MRSA 3126 [3] | Minimal inhibitory concentration (MIC), MDRAB 12035 [4] | Minimal inhibitory concentration (MIC), MDREC 1229 [5] | Minimal inhibitory concentration (MIC), A. baumannii [6] | Minimal inhibitory concentration (MIC), MDRPA 2002 [7] | GM, geometric mean of MICs, Gram-negative bacteria [8] | GM, geometric mean of MICs, Gram-positive bacteria [9] | toxicity against hRBCs (in words) ([10]; hRBCs) | cytotoxicity against mammalian cells (in words) [11] | Minimal inhibitory concentration (MIC), S. typhimurium [12] | Minimal inhibitory concentration (MIC), B. subtilis [13] | Minimal inhibitory concentration (MIC), P. aeruginosa [14] | Minimal inhibitory concentration (MIC), S. aureus [15] | Minimal inhibitory concentration (MIC), E. coli [16] | HC10, peptide concentration resulting in 10% hemolysis of fresh human erythrocytes [10]
CC[C@H](C)[C@H](NC(=O)CN)C(=O)NCC(=O)N[C@@H](C)C(=O)N[C@H](C(=O)N[C@@H](CC(C)C)C(=O)N[C@@H](CCCCN)C(=O)N[C@H](C(=O)N[C@@H](CC(C)C)C(=O)N[C@H](C(=O)N[C@H](C(=O)NCC(=O)N[C@@H](CC(C)C)C(=O)N1CCC[C@H]1C(=O)N[C@@H](C)C(=O)N[C@@H](CC(C)C)C(=O)N[C@H](C(=O)N[C@@H](CO)C(=O)N[C@@H](Cc1c[nH]c2ccccc12)C(=O)N[C@H](C(=O)N[C@@H](CCCCN)C(=O)N[C@@H](CCCNC(=N)N)C(=O)N[C@@H](CCCCN)C(=O)N[C@@H](CCCNC(=N)N)C(=O)N[C@@H](CCC(N)=O)C(=O)N[C@@H](CCC(N)=O)C(N)=O)[C@@H](C)CC)[C@@H](C)CC)[C@@H](C)O)[C@@H](C)O)C(C)C)C(C)C [Melittin, reference compound] | 8 µM (≈ 22.8 µg/mL) | 4 µM (≈ 11.4 µg/mL) | 2 µM (≈ 5.69 µg/mL) | 4 µM (≈ 11.4 µg/mL) | 8 µM (≈ 22.8 µg/mL) | 8 µM (≈ 22.8 µg/mL) | 4 µM (≈ 11.4 µg/mL) | 6 µM | 3 µM | highly toxic | displayed cytotoxicity at very low concentrations |  |  |  |  |  | 
RWKIFKKAAKKA-NH2 [Pap12-4] | 16 µM | 32 µM | 32 µM | 16 µM | 32 µM | 32 µM | 32 µM | 22 µM | 22 µM |  |  | 32 µM | 16 µM | 8 µM | 8 µM | 8 µM | 200 µM
RWKIFKKAAKKG-NH2 [Pap12-2] | 16 µM | 32 µM | 16 µM | 16 µM | 32 µM | 32 µM | 16 µM | 18 µM | 20 µM |  |  | 16 µM | 16 µM | 8 µM | 16 µM | 8 µM | 200 µM
